Patent US6075057A, “Inhibition of carbohydrates metabolism by quinone compounds” (priority 1997, dated 2000)
Where two headings read alike, the source gives them in different places.

Legend:
[1] = test system: amyloglucosidase (EC 3.2.1.3); experiment: Initial screening assay for enzyme inhibition, amyloglucosidase; assay type: biochemical, Aspergillus niger; details: for % Enzyme activity relative to control: amyloglucosidase, 20 μM inhibitor, 2% MeOH
Protocol: (§1) Optically pure enantiomers of avarol were synthetically prepared. A survey of potential inhibitory activity by avarol against twelve glycosidases was performed according to general procedures^15 (see experimental section). The enzymes tested and their biological sources are listed in Table 1 along with any pertinent references found for a given enzyme. In order to determine a working range for enzyme and substrate concentrations in which the rate of product formation was linear and steady-state kinetics were applicable, initial rate studies with varying substrate concentrations were performed in the absence of inhibitor. The Michaelis constants (Km 's) and Vmax values for these enzymes were determined from these plots using standard graphical analysis procedures as described in ref. 17 and are summarized in Table 2.
(§2) Enzymatic Assays. Piperazine-N,N'-bix-(2-ethanesulfonic acid)(PIPES) buffer, enzymes, and substrates were purchased from Sigma and used as received. Buffer solutions and enzymes (desiccated) were stored at 4° C. p-Nitrophenyl glycoside substrates were stored desiccated at -20° C. Enzyme inhibition assays and initial rate studies were carried out with the appropriate p-nitrophenyl glycoside substrates following the general procedure of Kajimoto et al., J. Am. Chem. Soc. 113:6187 (1991) with the exception that amyloglucosidase (EC 3.2,1.3, Asp. niger) was assayed following the method of Saul et al., Arch. Biochem. Biophys. 221:593 (1983). Assays were performed in a Perkin-Elmer Lambda Array 3840 Spectrophotometer using the built-in drive method (resolution=0.25, average=8) in a quartz cuvette (1 cm pathlength). Background absorption spectra were acquired using millipore filtered water as medium. Steady-state kinetics were maintained by adjusting the amount of enzyme used in each assay so that less than 10% of the substrate was converted to product for the duration of the reaction. Reactions were monitored at 400 nm (the absorbance of the p-nitrophenol product, ε=3204.5 M^-1 cm^-1) for a given amount of time and the initial rates were calculated and expressed as μmols p-nitrophenol formed per unit enzyme per second. Absportion readings for control reactions were corrected for the small baseline absorbance at time zero. Small discrepancies between time zero absorbance readings in a given inhibition assay and a time zero reading in a control assay were used to correct the overall absorbance change calculated in the inhibition assay. Inhibitors were dissolved in uv-grade absolute methanol.
(§3) Typical assay: A 1.5-mL quartz cuvette was charged with 940 μL of PIPES-NaOAc buffer solution (pH 6.56), 20 μL of inhibitor solution, and 20 μL of enzyme solution. The result was mixed well and then equilibrated at 37° C. for two minutes. 20 μL of the appropriate p-nitrophenyl glycoside solution was then added to initiate the reaction with rapid mixing. The reaction was monitored at 400 nm for 1 min and the absorbance change was used to calculate the initial hydrolysis rate. Lineweaver-Burk plots were constructed by repeating this procedure with varying substrate and inhibitor concentrations.

[2] = test system: β-N-acetylglucosaminidase (EC 3.2.1.30); experiment: Initial screening assay for enzyme inhibition, β-N-acetylglucosaminidase; assay type: biochemical, bovine kidney; details: 20 μM inhibitor, 2% MeOH
Protocol: as §1
as §2, with “Inhibitors were dissolved in uv-grade absolute methanol.” left out
(§4) Typical assay: A 1.5-mL quartz cuvette was charged with 940 μL of PIPES-NaOAc buffer solution (pH 6.56), 20 μL of inhibitor solution, and 20 μL of enzyme solution. […] The reaction was monitored at 400 nm for 1 min and the absorbance change was used to calculate the initial hydrolysis rate. […]

[3] = test system: β-mannosidase (EC 3.2.1.25); experiment: Initial screening assay for enzyme inhibition, β-mannosidase; assay type: biochemical, snail; details: 20 μM inhibitor, 2% MeOH
Protocol: as §1
as §2, with “Inhibitors were dissolved in uv-grade absolute methanol.” left out
as §4

[4] = target: T1, α-galactosidase (EC 3.2.1.22) (Coffea arabica, UniProt Q42656); experiment: Initial screening assay for enzyme inhibition, α-galactosidase (green coffee beans); assay type: biochemical; details: read-out: % Enzyme activity relative to control
T1 construct: purchased Sigma; host or cells: green coffee beans
Protocol: as §1
as §2, with “Inhibitors were dissolved in uv-grade absolute methanol.” left out
as §4

[5] = target: T2, β-galactosidase (EC 3.2.1.23) (Aspergillus niger, UniProt P29853); experiment: Initial screening assay for enzyme inhibition, β-galactosidase (Asp. niger); assay type: biochemical; details: 20 μM inhibitor, 2% MeOH, read-out: % Enzyme activity relative to control
T2 construct: purchased Sigma; host or cells: Aspergillus niger
Protocol: as §1
as §2, with “Inhibitors were dissolved in uv-grade absolute methanol.” left out
as §4

[6] = target: T3, α-glucosidase (EC 3.2.1.20, type IV) (Saccharomyces cerevisiae, UniProt P53341); experiment: Initial screening assay for enzyme inhibition, α-glucosidase; assay type: biochemical, brewer's yeast
T3 construct: purchased Sigma; host or cells: brewer's yeast
Protocol: as §1
Initial screening assays with the enantiomeric avarols indicated significant activity by these compounds against only two of the twelve enzymes studies. […] This can occur when the two species compete for the same site or nearby sites on the enzyme. The equilibria that describe competitive inhibition are shown below. [drawing 3]
as §2, §3

[7] = target: T4, β-galactosidase (EC 3.2.1.23, grade XI) (Aspergillus oryzae, UniProt Q2UCU3); experiment: Initial screening assay for enzyme inhibition, β-galactosidase (Asp. oryzae); assay type: biochemical; details: 20 μM inhibitor, 2% MeOH, read-out: % Enzyme activity relative to control
T4 construct: purchased Sigma; host or cells: Aspergillus oryzae
Protocol: as §1
as §2, with “Inhibitors were dissolved in uv-grade absolute methanol.” left out
as §4

[8] = test system: α-galactosidase (EC 3.2.1.22); experiment: Initial screening assay for enzyme inhibition, α-galactosidase (E. coli); assay type: biochemical, Escherichia coli; details: 20 μM inhibitor, 2% MeOH
Protocol: as §1
as §2, with “Inhibitors were dissolved in uv-grade absolute methanol.” left out
as §4

[9] = target: T5, α-L-fucosidase (EC 3.2.1.51) (Bos taurus, UniProt Q2KIM0); experiment: Initial screening assay for enzyme inhibition, α-L-fucosidase; assay type: biochemical, bovine kidney; details: read-out: % Enzyme activity relative to control
T5 construct: purchased Sigma; host or cells: bovine kidney
T5 sequence (Q2KIM0 23-468): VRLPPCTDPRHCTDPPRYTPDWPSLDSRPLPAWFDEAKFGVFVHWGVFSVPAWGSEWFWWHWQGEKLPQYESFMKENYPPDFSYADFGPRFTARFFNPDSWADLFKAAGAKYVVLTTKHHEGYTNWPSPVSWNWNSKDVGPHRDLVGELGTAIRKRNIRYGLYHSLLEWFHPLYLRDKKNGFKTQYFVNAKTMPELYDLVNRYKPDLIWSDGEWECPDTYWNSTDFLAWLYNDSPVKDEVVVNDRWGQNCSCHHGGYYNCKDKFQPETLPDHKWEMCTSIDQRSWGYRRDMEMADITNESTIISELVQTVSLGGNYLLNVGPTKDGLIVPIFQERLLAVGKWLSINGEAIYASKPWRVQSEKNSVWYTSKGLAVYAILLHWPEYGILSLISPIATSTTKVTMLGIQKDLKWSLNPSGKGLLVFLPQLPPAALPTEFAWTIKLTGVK
Protocol: as §1
as §2, with “Inhibitors were dissolved in uv-grade absolute methanol.” left out
as §4

[10] = target: T6, β-xylosidase (EC 3.2.1.37) (Aspergillus niger, UniProt O00089); experiment: Initial screening assay for enzyme inhibition, β-xylosidase; assay type: biochemical; details: 20 μM inhibitor, 2% MeOH, read-out: % Enzyme activity relative to control
T6 construct: purchased Sigma; host or cells: Aspergillus niger
Protocol: as §1
as §2, with “Inhibitors were dissolved in uv-grade absolute methanol.” left out
as §4

[11] = test system: benzo[a]pyrene monooxygenase; details: cited from earlier work
Ames-microsomal assay = details: cited from earlier work
[12] = documented; cited from earlier work
[13] = test system: microtubule polymerization; details: in vitro and in vivo; cited from earlier work
[14] = test system: L5178Y mouse lymphoma cells; details: in vitro and in vivo; cited from earlier work
HTLV-III/LAV = details: in vitro; cited from earlier work

T2 sequence (P29853 20-1006): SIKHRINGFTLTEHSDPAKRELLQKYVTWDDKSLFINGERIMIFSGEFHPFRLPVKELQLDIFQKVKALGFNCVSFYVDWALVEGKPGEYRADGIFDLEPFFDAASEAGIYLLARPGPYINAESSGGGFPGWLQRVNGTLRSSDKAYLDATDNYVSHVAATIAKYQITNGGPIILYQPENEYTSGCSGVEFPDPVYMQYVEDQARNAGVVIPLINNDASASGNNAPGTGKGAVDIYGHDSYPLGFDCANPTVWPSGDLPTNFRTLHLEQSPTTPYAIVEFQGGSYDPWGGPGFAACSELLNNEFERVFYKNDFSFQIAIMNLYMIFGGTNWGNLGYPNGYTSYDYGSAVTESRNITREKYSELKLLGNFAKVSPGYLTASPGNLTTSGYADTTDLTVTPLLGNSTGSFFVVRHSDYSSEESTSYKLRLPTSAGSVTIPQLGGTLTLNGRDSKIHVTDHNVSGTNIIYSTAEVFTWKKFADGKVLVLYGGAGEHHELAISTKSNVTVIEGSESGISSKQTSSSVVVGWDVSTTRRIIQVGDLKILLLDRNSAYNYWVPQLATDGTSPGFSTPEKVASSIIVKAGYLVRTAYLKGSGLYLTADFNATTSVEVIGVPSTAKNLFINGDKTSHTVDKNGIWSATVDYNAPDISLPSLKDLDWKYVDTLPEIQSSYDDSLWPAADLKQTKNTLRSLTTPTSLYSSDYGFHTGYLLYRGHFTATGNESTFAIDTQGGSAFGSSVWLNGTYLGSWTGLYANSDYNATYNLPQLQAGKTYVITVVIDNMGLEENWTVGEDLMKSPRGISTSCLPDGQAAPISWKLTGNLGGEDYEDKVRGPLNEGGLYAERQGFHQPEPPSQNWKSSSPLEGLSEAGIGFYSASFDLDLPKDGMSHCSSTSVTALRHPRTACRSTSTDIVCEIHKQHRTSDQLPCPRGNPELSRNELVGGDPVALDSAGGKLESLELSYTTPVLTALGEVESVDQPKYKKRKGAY
T3 sequence (P53341 whole entry): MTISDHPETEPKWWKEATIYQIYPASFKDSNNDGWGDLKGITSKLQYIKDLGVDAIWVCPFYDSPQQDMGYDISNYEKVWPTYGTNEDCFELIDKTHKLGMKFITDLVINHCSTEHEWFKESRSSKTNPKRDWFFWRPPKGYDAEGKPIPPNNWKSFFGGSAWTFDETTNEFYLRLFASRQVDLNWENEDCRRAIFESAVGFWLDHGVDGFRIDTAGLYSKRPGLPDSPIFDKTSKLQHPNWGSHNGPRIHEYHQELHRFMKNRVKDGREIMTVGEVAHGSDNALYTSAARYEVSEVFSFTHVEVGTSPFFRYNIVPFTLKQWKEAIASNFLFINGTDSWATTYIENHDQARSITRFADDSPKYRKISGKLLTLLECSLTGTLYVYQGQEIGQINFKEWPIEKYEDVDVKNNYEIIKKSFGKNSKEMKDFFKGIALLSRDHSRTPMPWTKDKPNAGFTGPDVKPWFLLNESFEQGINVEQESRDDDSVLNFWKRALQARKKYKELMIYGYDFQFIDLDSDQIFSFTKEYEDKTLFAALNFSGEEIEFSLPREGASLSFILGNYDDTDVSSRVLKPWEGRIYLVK
T4 sequence (Q2UCU3 19-1005): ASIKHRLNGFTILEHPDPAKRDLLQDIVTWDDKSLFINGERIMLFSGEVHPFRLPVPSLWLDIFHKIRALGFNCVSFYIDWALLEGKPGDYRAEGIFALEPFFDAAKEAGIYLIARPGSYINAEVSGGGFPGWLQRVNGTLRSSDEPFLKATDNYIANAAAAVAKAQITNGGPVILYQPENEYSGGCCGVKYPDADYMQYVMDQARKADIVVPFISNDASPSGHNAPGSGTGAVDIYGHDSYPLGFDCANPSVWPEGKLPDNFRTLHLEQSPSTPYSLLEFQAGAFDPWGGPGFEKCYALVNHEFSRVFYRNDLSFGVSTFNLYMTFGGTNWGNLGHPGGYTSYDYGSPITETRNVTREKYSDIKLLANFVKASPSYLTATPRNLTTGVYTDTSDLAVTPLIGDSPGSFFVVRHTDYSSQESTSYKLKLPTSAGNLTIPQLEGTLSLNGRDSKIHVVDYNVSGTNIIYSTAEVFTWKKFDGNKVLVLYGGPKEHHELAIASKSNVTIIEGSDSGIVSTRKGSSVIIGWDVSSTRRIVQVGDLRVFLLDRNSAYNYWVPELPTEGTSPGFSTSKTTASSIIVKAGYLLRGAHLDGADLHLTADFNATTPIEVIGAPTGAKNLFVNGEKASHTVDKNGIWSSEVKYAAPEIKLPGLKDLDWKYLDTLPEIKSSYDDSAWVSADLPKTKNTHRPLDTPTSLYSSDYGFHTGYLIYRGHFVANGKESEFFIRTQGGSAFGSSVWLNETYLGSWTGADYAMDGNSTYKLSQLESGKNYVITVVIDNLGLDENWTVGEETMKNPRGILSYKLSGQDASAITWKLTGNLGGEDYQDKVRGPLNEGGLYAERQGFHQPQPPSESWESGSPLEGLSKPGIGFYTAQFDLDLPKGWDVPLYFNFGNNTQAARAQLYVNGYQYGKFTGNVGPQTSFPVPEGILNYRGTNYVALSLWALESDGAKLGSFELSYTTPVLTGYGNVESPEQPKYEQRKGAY
T6 sequence (O00089 27-804): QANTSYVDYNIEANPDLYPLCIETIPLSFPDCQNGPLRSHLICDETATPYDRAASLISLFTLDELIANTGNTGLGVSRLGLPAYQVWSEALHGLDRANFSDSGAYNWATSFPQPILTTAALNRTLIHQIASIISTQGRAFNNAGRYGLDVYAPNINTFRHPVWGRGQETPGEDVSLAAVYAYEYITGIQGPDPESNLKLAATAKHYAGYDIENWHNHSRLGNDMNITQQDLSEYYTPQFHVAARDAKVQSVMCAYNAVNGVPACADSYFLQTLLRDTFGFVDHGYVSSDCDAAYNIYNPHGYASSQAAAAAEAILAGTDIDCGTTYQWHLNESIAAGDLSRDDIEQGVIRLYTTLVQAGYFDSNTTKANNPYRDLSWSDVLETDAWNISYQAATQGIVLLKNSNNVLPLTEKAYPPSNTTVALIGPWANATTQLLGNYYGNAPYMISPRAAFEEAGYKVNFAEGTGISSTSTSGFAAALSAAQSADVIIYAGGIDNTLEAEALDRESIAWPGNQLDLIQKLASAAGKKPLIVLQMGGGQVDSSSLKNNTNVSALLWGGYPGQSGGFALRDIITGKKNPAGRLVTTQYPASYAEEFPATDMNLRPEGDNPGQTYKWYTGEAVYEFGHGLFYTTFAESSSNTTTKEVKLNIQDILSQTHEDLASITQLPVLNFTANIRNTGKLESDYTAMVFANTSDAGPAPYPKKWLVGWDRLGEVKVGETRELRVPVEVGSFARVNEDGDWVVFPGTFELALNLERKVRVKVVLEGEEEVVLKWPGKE
T1 sequence (Q42656 16-378): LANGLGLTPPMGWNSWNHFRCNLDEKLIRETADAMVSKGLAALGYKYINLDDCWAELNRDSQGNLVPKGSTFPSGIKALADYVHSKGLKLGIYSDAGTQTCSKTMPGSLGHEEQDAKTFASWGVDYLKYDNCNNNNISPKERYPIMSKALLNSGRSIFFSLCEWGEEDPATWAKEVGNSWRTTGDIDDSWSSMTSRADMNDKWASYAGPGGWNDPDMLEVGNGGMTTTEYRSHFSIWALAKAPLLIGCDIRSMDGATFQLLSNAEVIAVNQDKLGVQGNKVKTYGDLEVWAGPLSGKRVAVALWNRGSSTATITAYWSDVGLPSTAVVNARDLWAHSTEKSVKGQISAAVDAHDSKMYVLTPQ

| SMILES | inhibition of amyloglucosidase (in words) ([1]; Table 3) | % Enzyme activity relative to control [1] | % Enzyme activity relative to control [2] | % Enzyme activity relative to control [3] | remaining activity at 20 µM ([4]; α-galactosidase (green coffee beans), 20 μM inhibitor, 2% MeOH) | remaining activity at 20 µM [5] | inhibition at 20 µM ([6]; 20 μM) | remaining activity at 20 µM ([6]; α-glucosidase, 20 μM inhibitor, 2% MeOH, read-out: % Enzyme activity relative to control) | remaining activity at 20 µM [7] | % Enzyme activity relative to control [8] | remaining activity at 20 µM ([9]; α-L-fucosidase, 20 μM inhibitor, 2% MeOH) | remaining activity at 20 µM [10] | remaining activity at 20 µM [4] | remaining activity at 20 µM [9] | antimutagenic activity through inhibition of benzo[a]pyrene monooxygenase [11] | mutagenicity (Ames-microsomal assay) | toxicity [12] | inhibition of microtubule polymerization [13] | cytotoxicity against L5178Y mouse lymphoma cells [14] | inhibition of replication of HTLV-III/LAV (HTLV-III/LAV) |
| --- | --- | --- | --- | --- | --- | --- | --- | --- | --- | --- | --- | --- | --- | --- | --- | --- | --- | --- | --- | --- |
| C=C1CCC[C@H]2[C@](C)(CC3=C(O)C(=O)C=C(OC)C3=O)[C@@H](C)CC[C@]12C [ilimaquinone, reference compound] | strong inhibitor of amyloglucosidase | 57% | 96% | 108% | 97% | 111% | 20% | 82% | 98% | 101% | 109% | 105% | – | – | – | – | – | – | – | – |
| CC1=CCC[C@H]2[C@](C)(CC/C(C)=C/C[n+]3cn(C)c4ncnc(N)c43)[C@@H](C)CC[C@]12C [C-4-10] | – | 94% | 91% | 109% | – | 95% | – | – | 108% | 102% | – | 102% | 96% | 100% | – | – | – | – | – | – |
| CC1=CCC[C@H]2[C@](C)(CC3=CC(=O)C=CC3=O)[C@@H](C)CC[C@]12C [avarone, Avarone] | – | – | – | – | – | – | – | – | – | – | – | – | – | – | antimutagenic activity through the inhibition of benzo[a]pyrene monooxygenase | neither direct nor indirect mutagens | low toxicity | – | – | – |
| CC1=CCC[C@H]2[C@](C)(Cc3cc(O)ccc3O)[C@@H](C)CC[C@]12C [avarol] | – | – | – | – | – | – | – | – | – | – | – | – | – | – | antimutagenic activity through the inhibition of benzo[a]pyrene monooxygenase | neither direct nor indirect mutagens | low toxicity | inhibition of microtubule polymerization | highly selective cytotoxicity | inhibition of replication |
